The values that follow come from patent US20250026723A1, “Cannabinoid Receptor Modulating Compounds” (THE UNITED STATES OF AMERICA, as represented by the …, priority 2021, published 2025).

Data set [1] deals with T1, CB1 (Homo sapiens (Human), UniProt P21554). Nature of the data set: CB1 antagonism assay, green (β-Arrestin) NOMAD biosensor, MPXNomad-CB1 HEK293 cells. It is filed as cell-based. The protocol:
(§1) CB1 antagonism assays were conducted on red (cAMP) and green ([…]) NOMAD biosensors using MPXNomad-CB1 HEK293 cells using commercial kits and protocols provided by Innoprot (Derio, Spain).
Target sequence in this assay (P21554 whole entry): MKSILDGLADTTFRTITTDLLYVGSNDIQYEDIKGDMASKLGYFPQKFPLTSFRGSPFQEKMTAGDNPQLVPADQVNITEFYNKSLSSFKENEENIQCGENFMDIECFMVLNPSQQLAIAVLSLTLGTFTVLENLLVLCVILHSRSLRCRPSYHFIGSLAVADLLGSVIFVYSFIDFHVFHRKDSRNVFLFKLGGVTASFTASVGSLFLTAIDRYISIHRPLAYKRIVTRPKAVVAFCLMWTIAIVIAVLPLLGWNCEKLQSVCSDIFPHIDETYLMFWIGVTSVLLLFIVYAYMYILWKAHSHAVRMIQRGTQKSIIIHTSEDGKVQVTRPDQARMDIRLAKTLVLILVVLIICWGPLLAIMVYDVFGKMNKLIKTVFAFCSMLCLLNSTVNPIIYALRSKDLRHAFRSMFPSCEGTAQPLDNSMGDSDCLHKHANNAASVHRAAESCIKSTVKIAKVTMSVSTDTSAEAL

In data set [2] the target is cannabinoid receptor 1 (CB1R) (Homo sapiens (Human), UniProt P21554). Nature of the data set: CB1R binding affinity (inhibition constant Ki).
A short description of data set [3]: Caco-2 permeability assay. Particulars: human, Caco-2.
The nature of another data set: in vitro. Particulars: human, Caco-2.
The target of data set [4] is T1, CB1. Put plainly: CB1 antagonism assay, red (cAMP) NOMAD biosensor, MPXNomad-CB1 HEK293 cells. The data set is classed as cell-based. The method, then: as §1
Target sequence in this assay (P21554 whole entry): as above
The target in data set [5] is T1, CB1. Put plainly: Cannabinoid receptor modulator activity (Table 3, in words).
Target sequence in this assay (P21554 whole entry, species assumed): as the sequence (P21554 whole entry) above
In a further data set the test system is Caco-2. Put plainly: Caco-2 permeability assay. Particulars: Caco-2, assay conc 10 μM.

The structures appear in SMILES notation. Read-outs that look alike come from different tables or passages of the source.

Turning to `COC(=O)[C@@H](C)CS/C(=N\S(=O)(=O)c1ccc(C(F)(F)F)cc1)N1CC(c2ccccc2)C(c2ccc(Cl)cc2)=N1` (stereo partly shown) [Compound 3A], the IC50 against CB1 [1] worked out at 0.04 nM; on CB1 [4], 0.61 nM. In data set [2], this compound showed an inhibitory constant (Ki) of 7.7 nM. The efflux ratio at 10 μM in data set [3] came to 1.26. Also, in “in vitro”, the Papp A→B at 10 μM is 0.0096 ×10⁻⁶ cm/s. This compound also showed a Papp B→A at 10 μM in “in vitro” of 0.0121 ×10⁻⁶ cm/s.
As for `O=C(CCS/C(=N\S(=O)(=O)c1ccc(C(F)(F)F)cc1)N1CC(c2ccccc2)C(c2ccc(Cl)cc2)=N1)NO` (stereo not shown) [Compound 3B], the “Activity at CB1 (in words)” value at CB1 [5] is reported as “antagonist, potential”.
On to `C[Se]C(=NS(=O)(=O)c1ccc(C(F)(F)F)cc1)N1CC(c2ccccc2)C(c2ccc(Cl)cc2)=N1` (stereo not shown) [Compound 12], for which the Ki in data set [2] (read-out: CB1R Ki) was found to be 3.3 nM.
Regarding `N#CCCCSC(=NS(=O)(=O)c1ccc(C(F)(F)F)cc1)N1CC(c2ccccc2)C(c2ccc(Cl)cc2)=N1` (stereo not shown) [Compound 2], on CB1 [1] (MPXNomad-CB1 HEK293 cells, CB1 antagonism, read-out: β-Arrestin IC50), the 50% inhibitory concentration (IC50) turned out to be 1800 nM. Also, the Ki in data set [2] (read-out: CB1R Ki) was found to be 3.4 nM. Moreover, in the data set with Caco-2, the “Mean (B-A/A-B) Efflux Ratio” value is 2.09, the “Mean Papp A-B” value is listed as 0.00561 10^−6 cm/s and the “Mean Papp B-A” value is on record as 0.0118 10^−6 cm/s. Moreover, the half-maximal inhibitory concentration (IC50) at CB1 [4] (MPXNomad-CB1 HEK293 cells, CB1 antagonism, read-out: cAMP IC50) worked out at 2490 nM.
Consider `CSC(=NS(=O)(=O)c1ccc(C(F)(F)F)cc1)N1CC(c2ccccc2)C(c2ccc(Cl)cc2)=N1` (stereo not shown) [Compound 19], for which, in data set [2] (read-out: CB1R Ki), the Ki was found to be 16.6 nM.
The same measure, in the same setting: the result for `COC(=O)C(C)C[Se]C(=NS(=O)(=O)c1ccc(Cl)cc1)N1CC(c2ccccc2)C(c2ccc(Cl)cc2)=N1` (stereo not shown) [Compound 23] reads 12.1 nM; that for `NC(=O)CSC(=NS(=O)(=O)c1ccc(C(F)(F)F)cc1)N1CC(c2ccccc2)C(c2ccc(Cl)cc2)=N1` (stereo not shown) [Compound 3], 21.2 nM.
Turning to `NC(=O)C[Se]C(=NS(=O)(=O)c1ccc(C(F)(F)F)cc1)N1CC(c2ccccc2)C(c2ccc(Cl)cc2)=N1` (stereo not shown) [Compound 20], the Ki in data set [2] (read-out: CB1R Ki) was 14.4 nM. In the data set on Caco-2, the “Mean (B-A/A-B) Efflux Ratio” value came out at 0.25, the “Mean Papp A-B” value is 0.183 10^−6 cm/s and the “Mean Papp B-A” value is given as 0.0451 10^−6 cm/s.
For the compound `COCCSC(=NS(=O)(=O)c1ccc(C(F)(F)F)cc1)N1CC(c2ccccc2)C(c2ccc(Cl)cc2)=N1` (stereo not shown) [Compound 1], the inhibition constant (Ki) in data set [2] (read-out: CB1R Ki) turned out to be 6.9 nM.
